Measured values reported in patent publication US12186283B2, “Bismuth-thiol compositions and methods of use” (Microbion Corporation, priority 2018, dated 2025).
Converted amounts (≈) assume the structure as drawn.

Key:
Escherichia coli [1] = details: E. coli ATCC 25922, QC organism; cited from earlier work
Pseudomonas aeruginosa [2] = details: P. aeruginosa ATCC 27853, QC organism; cited from earlier work
Escherichia coli [3] = test: Broth microdilution MIC (Example 12)
Klebsiella pneumoniae = test: Broth microdilution MIC (Example 12)
Pseudomonas aeruginosa [4] = test: Broth microdilution MIC (Example 12)
Acinetobacter baumannii = test: Broth microdilution MIC (Example 12)

Structure (SMILES): CC(C)(O/N=C(\C(=O)N[C@@H]1C(=O)N2C(C(=O)[O-])=C(C[n+]3ccccc3)CS[C@H]12)c1csc(N)n1)C(=O)O [CAZ]
- MIC, QC range (Escherichia coli [1]): (0.06-0.5) μg/mL
- MIC, QC range (Pseudomonas aeruginosa [2]): (1-4) μg/mL
- MIC (Escherichia coli [3]; E. coli ATCC 25922, QC organism): 0.25 µg/mL (≈ 0.457 µM)
- MIC (Escherichia coli [3]; E. coli ATCC 35218, QC organism): 0.12 µg/mL (≈ 0.22 µM)
- MIC (Escherichia coli [3]; Escherichia coli ATCC 35218, ESBL): 0.12 µg/mL (≈ 0.22 µM)
- MIC (Escherichia coli [3]; Escherichia coli ATCC BAA-2471, NDM): >64 µg/mL
- MIC (Escherichia coli [3]; Escherichia coli CDC 114, ESBL/KPC): >64 µg/mL
- MIC (Escherichia coli [3]; Escherichia coli CDC 118, ESBL/NDM): >64 µg/mL
- MIC (Escherichia coli [3]; Escherichia coli CDC 435, NDM): >64 µg/mL
- MIC (Escherichia coli [3]; Escherichia coli CDC 451, KPC): 64 µg/mL (≈ 117 µM)
- MIC (Escherichia coli [3]; Escherichia coli CDC 503, ESBL/NDM): >64 µg/mL
- MIC (Escherichia coli [3]; Escherichia coli MMX 5745, KPC): 32 µg/mL (≈ 58.5 µM)
- MIC (Escherichia coli [3]; Escherichia coli MMX 5755, ESBL): >64 µg/mL
- MIC (Escherichia coli [3]; Escherichia coli MMX 5756, ESBL): >64 µg/mL
- MIC (Escherichia coli [3]; Escherichia coli MMX 5758, ESBL): 16 µg/mL (≈ 29.3 µM)
- MIC (Klebsiella pneumoniae; K. pneumoniae ATCC BAA-1705, QC organism): >64 µg/mL
- MIC (Klebsiella pneumoniae; Klebsiella pneumoniae ATCC BAA-1705, ESBL/KPC): >64 µg/mL
- MIC (Klebsiella pneumoniae; Klebsiella pneumoniae CDC 112, KPC): >64 µg/mL
- MIC (Klebsiella pneumoniae; Klebsiella pneumoniae CDC 113, ESBL/KPC): >64 µg/mL
- MIC (Klebsiella pneumoniae; Klebsiella pneumoniae CDC 115, ESBL/KPC): >64 µg/mL
- MIC (Klebsiella pneumoniae; Klebsiella pneumoniae CDC 120, ESBL/KPC): >64 µg/mL
- MIC (Klebsiella pneumoniae; Klebsiella pneumoniae CDC 126, ESBL/KPC): 4 µg/mL (≈ 7.32 µM)
- MIC (Klebsiella pneumoniae; Klebsiella pneumoniae CDC 129, ESBL/KPC): >64 µg/mL
- MIC (Klebsiella pneumoniae; Klebsiella pneumoniae CDC 135, ESBL/VIM): >64 µg/mL
- MIC (Klebsiella pneumoniae; Klebsiella pneumoniae CDC 138, ESBL/NDM): >64 µg/mL
- MIC (Klebsiella pneumoniae; Klebsiella pneumoniae CDC 158, ESBL/NDM/OXA): >64 µg/mL
- MIC (Klebsiella pneumoniae; Klebsiella pneumoniae MMX 9029, ESBL): 4 µg/mL (≈ 7.32 µM)
- MIC (Pseudomonas aeruginosa [4]; P. aeruginosa ATCC 27853, QC organism): 2 µg/mL (≈ 3.66 µM)
- MIC (Pseudomonas aeruginosa [4]; Pseudomonas aeruginosa CDC 230, VIM/OXA): 64 µg/mL (≈ 117 µM)
- MIC (Pseudomonas aeruginosa [4]; Pseudomonas aeruginosa CDC 231, KPC/OXA): >64 µg/mL
- MIC (Pseudomonas aeruginosa [4]; Pseudomonas aeruginosa CDC 241, IMP/OXA): >64 µg/mL
- MIC (Pseudomonas aeruginosa [4]; Pseudomonas aeruginosa CDC 246, NDM/OXA): >64 µg/mL
- MIC (Pseudomonas aeruginosa [4]; Pseudomonas aeruginosa CDC 250, NDM/OXA): >64 µg/mL
- MIC (Pseudomonas aeruginosa [4]; Pseudomonas aeruginosa CDC 356, KPC): 64 µg/mL (≈ 117 µM)
- MIC (Pseudomonas aeruginosa [4]; Pseudomonas aeruginosa CDC 439, IMP): >64 µg/mL
- MIC (Pseudomonas aeruginosa [4]; Pseudomonas aeruginosa CDC 444, VIM): 32 µg/mL (≈ 58.5 µM)
- MIC (Pseudomonas aeruginosa [4]; Pseudomonas aeruginosa CDC 457, VIM): >64 µg/mL
- MIC (Pseudomonas aeruginosa [4]; Pseudomonas aeruginosa CDC 516, KPC/AmpC): 64 µg/mL (≈ 117 µM)
- MIC (Pseudomonas aeruginosa [4]; Pseudomonas aeruginosa CDC 518, KPC/AmpC): 32 µg/mL (≈ 58.5 µM)
- MIC (Acinetobacter baumannii; Acinetobacter baumannii CDC 273, ESBL/OXA): 64 µg/mL (≈ 117 µM)
- MIC (Acinetobacter baumannii; Acinetobacter baumannii CDC 274, ESBL/OXA): >64 µg/mL
- MIC (Acinetobacter baumannii; Acinetobacter baumannii CDC 275, ESBL/OXA): >64 µg/mL
- MIC (Acinetobacter baumannii; Acinetobacter baumannii CDC 277, ESBL/OXA): >64 µg/mL
- MIC (Acinetobacter baumannii; Acinetobacter baumannii CDC 284, ESBL/OXA): 64 µg/mL (≈ 117 µM)
- MIC (Acinetobacter baumannii; Acinetobacter baumannii CDC 307, OXA): 64 µg/mL (≈ 117 µM)
- MIC (Acinetobacter baumannii; Acinetobacter baumannii CDC 308, ESBL/OXA): 64 µg/mL (≈ 117 µM)
- MIC (Acinetobacter baumannii; Acinetobacter baumannii CDC 311, OXA): >64 µg/mL
- MIC (Acinetobacter baumannii; Acinetobacter baumannii CDC 312, OXA): >64 µg/mL
- MIC (Acinetobacter baumannii; Acinetobacter baumannii CDC 313, ESBL/OXA): >64 µg/mL
- MIC (Acinetobacter baumannii; Acinetobacter baumannii NCTC 13304, OXA): >64 µg/mL
